Measurements from US7709645B2, “Pyrrolo-pyridine kinase modulators” (SGX Pharmaceuticals, Inc., priority 2004, dated 2010).

What follows are compounds tested against T1, MET kinase (Homo sapiens, UniProt P08581) (assay: Met Bioassay (luminescence-based enzyme assay, Kinase-Glo)). Conditions: 10 μM ATP.
T1 construct: Sf9 insect cell culture expressing the kinase domain of human Met; 6x Histidine tag (TEV-cleavable) (cleaved yes); made in house; host or cells: Sf9 insect cells
Format: biochemical
Excerpt: In addition to the c-Abl PK/LDH coupled assay (above), homogeneous luminescence-based inhibitor screening assays were developed for c-Abl, MET, AurA, and PDK1 kinases (among others). Each of these assays made use of an ATP depletion assay (Kinase-Glo™, Promega Corporation, Madison, Wis.) to quantitate kinase activity. The Kinase-Glo™ format uses a thermostable luciferase to generate luminescent signal from ATP remaining in solution following the kinase reaction. The luminescent signal is inversely correlated with the amount of kinase activity.
Materials: Poly Glu-Tyr (4:1) substrate (Sigma Cat# P-0275), ATP (Sigma Cat#A-3377, FW=551), HEPES buffer, pH 7.5, Bovine serum albumin (BSA) (Roche 92423420), MgCl2, Staurosporine (Streptomyces sp. Sigma Cat#85660-1MG), white Costar 384-well flat-bottom plate (VWR Cat#29444-088). MET kinase (see below), Kinase-Glo™ (Promega Cat#V6712).
Stock Solutions: 10 mg/ml poly Glu-Tyr in water, stored at −20° C.; 100 mM HEPES buffer, pH 7.5 (5 ml 1M stock+45 ml miliQH2O); 10 mM ATP (5.51 mg/ml in dH2O) stored at −20° C. (diluted 50 μl into total of 10 ml miliQH2O daily=50 μM ATP working stock); 1% BSA (1 g BSA in 100 ml 0.1M HEPES, pH 7.5, stored at −20° C.), 100 mM MgCl2; 200 μM Staurosporine, 2× Kinase-Glo™ reagent (made fresh or stored at −20° C.).
Standard Assay Setup for 384-well format (20 μl kinase reaction, 40 μl detection reaction): 10 mM MgCl2; 0.3 mg/ml poly Glu-Tyr; 0.1% BSA; 1 μl test compound (in DMSO); 0.4 μg/ml MET kinase; 10 μM ATP; 100 mM HEPES buffer. Positive controls contained DMSO with no test compound. Negative controls contained 10 μM staurosporine. The kinase reactions were initiated at time t=0 by the addition of ATP. Kinase reactions were incubated at 21° C. for 60 min, then 20 μl of Kinase-Glo™ reagent were added to each well to quench the kinase reaction and initiate the luminescence reaction. After a 20 min incubation at 21° C., the luminescence was detected in a plate-reading luminometer.
The cell pellets produced from half of a 12 L Sf9 insect cell culture expressing the kinase domain of human Met were resuspended in a buffer containing 50 mM Tris-HCl pH 7.7 and 250 mM NaCl, in a volume of approximately 40 ml per 1 L of original culture. One tablet of Roche Complete, EDTA-free protease inhibitor cocktail (Cat# 1873580) was added per 1 L of original culture. The suspension was stirred for 1 hour at 4° C. Debris was removed by centrifugation for 30 minutes at 39,800×g at 4° C. The supernatant was decanted into a 500 ml beaker and 10 ml of 50% slurry of Qiagen Ni-NTA Agarose (Cat# 30250) that had been pre-equilibrated in 50 mM Tris-HCl pH 7.8, 50 mM NaCl, 10% Glycerol, 10 mM Imidazole, and 10 mM Methionine, were added and stirred for 30 minutes at 4° C. The sample was then poured into a drip column at 4° C. and washed with 10 column volumes of 50 mM Tris-HCl pH 7.8, 500 mM NaCl, 10% Glycerol, 10 mM Imidazole, and 10 mM Methionine. The protein was eluted using a step gradient with two column volumes each of the same buffer containing 50 mM, 200 mM, and 500 mM Imidazole, sequentially. The 6× Histidine tag was cleaved overnight using 40 units of TEV protease (Invitrogen Cat#10127017) per 1 mg of protein while dialyzing in 50 mM Tris-HCl pH 7.8, 500 mM NaCl, 10% Glycerol, 10 mM Imidazole, and 10 mM Methionine at 4° C. The 6× Histidine tag was removed by passing the sample over a Pharmacia 5 ml IMAC column (Cat# 17-0409-01) charged with Nickel and equilibrated in 50 mM Tris-HCl pH 7.8, 500 mM NaCl, 10% Glycerol, 10 mM Imidazole, and 10 mM Methionine. The cleaved protein bound to the Nickel column at a low affinity and was eluted with a step gradient. The step gradient was run with 15% and then 80% of the B-side (A-side=50 mM Tris-HCl pH 7.8, 500 mM NaCl, 10% Glycerol, 10 mM Imidazole, and 10 mM Methionine; B-side=50 mM Tris-HCl pH 7.8, 500 mM NaCl, 10% Glycerol, 500 mM Imidazole, and 10 mM Methionine) for 4 column volumes each. […]

T1 sequence (P08581 1078-1345 limits assumed): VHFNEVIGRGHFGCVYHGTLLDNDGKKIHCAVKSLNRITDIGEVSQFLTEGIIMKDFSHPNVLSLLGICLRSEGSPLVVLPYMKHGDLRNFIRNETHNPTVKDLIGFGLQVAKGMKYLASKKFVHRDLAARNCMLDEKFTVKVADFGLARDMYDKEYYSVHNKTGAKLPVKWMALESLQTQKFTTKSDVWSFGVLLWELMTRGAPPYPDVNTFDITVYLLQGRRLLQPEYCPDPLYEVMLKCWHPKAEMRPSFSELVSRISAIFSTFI

Compound	IC50 [nM]
c1cc2cc(-c3c[nH]c4ncc(-c5ccc6[nH]cnc6c5)cc34)ccc2[nH]1 [AE22]	1000 to 5000
Oc1cccc(-c2cnc3[nH]cc(-c4ccc(O)c(F)c4)c3c2)c1 [AE48]	< 1000
COc1cc(-c2cnc3[nH]cc(-c4ccccc4OC)c3c2)ccc1OCCN1CCCC1 [AE65]	1000 to 5000
COc1ccccc1-c1c[nH]c2ncc(-c3ccc(O)c(CN4CCCN(C)CC4)c3)cc12 [AE41]	1000 to 5000
COc1cc(-c2cnc3[nH]cc(-c4ccc(O)cc4)c3c2)ccc1O [AE58]	1000 to 5000
O=C(c1cncc(-c2cnc3[nH]cc(-c4ccc5cc[nH]c5c4)c3c2)c1)N1CCOCC1 [AE14]	< 1000
COc1ccccc1-c1c[nH]c2ncc(-c3ccc(CN(C)C)cc3)cc12 [AE8]	< 1000
COc1ccccc1-c1c[nH]c2ncc(-c3cccc(C(=N)N4CCCCC4)c3)cc12 [AE42]	< 1000
